Measurements published in patent publication US20040171598A1, “Use of steroids to treat persons suffering from ocular disorders” (priority 2003, published 2004).

Experiments:
IOP = experiment: Dexamethasone acetate induced IOP elevation in rabbits; assay type: in vivo, rabbit; conditions: for IOP: rabbits with weekly subTenon's dexamethasone acetate 1 mg/kg, versus vehicle
Description: Three groups of rabbits received weekly subTenon's injections of dexamethasone acetate (1 mg/kg) for 4 weeks. After two weeks, the IOPs of all three groups measured approximately 5 mm Hg. The rabbits were then treated with vehicle, 0.1% anecortave acetate, a 1% anecortave acetate by topical ocular dosing three times a day for the remaining 2 weeks. The IOP continued to increase in the vehicle treated group.

[1] = test system: retinal neovascularization; experiment: Rat pup model of retinopathy of prematurity; assay type: in vivo
Description: Anecortave acetate was tested for its angiostatic efficacy in a rat pup model of retinopathy of prematurity (Penn, at al., Investigative Ophthalmology & Visual Science, “The Effect of an Angiostatic Steroid on Neovascularization in a Rat Model of Retinopathy of Prematurity,” Vol. 42(1):283-290, January 2001). Newborn rat pups were placed in an atmosphere of varying oxygen content. The rats received a single intravitreal injection of vehicle or anecortave acetate (500 μg) upon return to room air (day 14) or 2 days later (day 16). There was significant retinal neovascularization in the rats that receive vehicle injections.

| IOP after two weeks of dexamethasone acetate (IOP; rabbits, weekly subTenon's injections 1 mg/kg, all three groups, before anecortave acetate or vehicle dosing) | Structure (SMILES) | IOP (IOP; 0.1% anecortave acetate topical ocular three times a day for 2 weeks) | IOP (IOP; 1% anecortave acetate topical ocular three times a day for 2 weeks) | inhibition of retinal neovascularization ([1]; single intravitreal injection 500 μg 2 days after return to room air (day 16)) | inhibition of retinal neovascularization ([1]; single intravitreal injection 500 μg upon return to room air (day 14)) |
| --- | --- | --- | --- | --- | --- |
|  | CC(=O)OCC(=O)[C@@]1(O)CC[C@H]2[C@@H]3CCC4=CC(=O)CC[C@]4(C)C3=CC[C@@]21C [anecortave acetate, 4,9(11)-pregnadien-17α,21-diol-3,20dione-21-acetate] | significantly lowered | significantly lowered | 50% | 66% |
| approximately 5 mm Hg | CC(=O)OCC(=O)[C@@]1(O)[C@H](C)C[C@H]2[C@@H]3CCC4=CC(=O)C=C[C@]4(C)[C@@]3(F)[C@@H](O)C[C@@]21C [dexamethasone acetate] |  |  |  |  |
